{"source": "patent US20150105252A1", "about": "“SUBSTITUTED PYRAZOLES AS HERBICIDES” (E I DU PONT DE NEMOURS AND COMPANY, priority 2013, published 2015)", "key": {"[1]": {"test_system": "oilseed rape", "experiment": "Test C postemergence", "assay_type": "in vivo, Brassica napus", "in_short": "(§1)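 Seeds were sown in a loam soil–sand blend and sprayed preemergence with compounds formulated in a non-phytotoxic solvent mixture containing surfactant. Postemergence plants, grown in peat/vermiculite medium to 2–18 cm (1- to 4-leaf stage), received the same formulation. After 13 to 15 days in a greenhouse, injury was rated visually against controls (0 = no effect, 100 = complete control).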"}, "[2]": {"test_system": "crabgrass, large", "experiment": "Test C postemergence", "assay_type": "in vivo, Digitaria sanguinalis", "in_short": "as §1"}, "[3]": {"test_system": "galium", "experiment": "Test C postemergence", "assay_type": "in vivo, Galium aparine", "in_short": "as §1"}, "[4]": {"test_system": "lambsquarters", "experiment": "Test C preemergence", "assay_type": "in vivo, Chenopodium album", "in_short": "as §1"}, "[5]": {"test_system": "waterhemp", "experiment": "Test C postemergence", "assay_type": "in vivo, Amaranthus rudis", "in_short": "as §1"}, "[6]": {"test_system": "kochia", "experiment": "Test C postemergence", "assay_type": "in vivo, Kochia scoparia", "in_short": "as §1"}, "[7]": {"test_system": "barnyardgrass", "experiment": "Test C postemergence", "assay_type": "in vivo, Echinochloa crus-galli", "in_short": "as §1"}, "[8]": {"test_system": "oat, wild", "experiment": "Test C postemergence", "assay_type": "in vivo, Avena fatua", "in_short": "as §1"}, "[9]": {"test_system": "morningglory", "experiment": "Test C postemergence", "assay_type": "in vivo, Ipomoea coccinea", "in_short": "as §1"}, "[10]": {"test_system": "blackgrass", "experiment": "Test C postemergence", "assay_type": "in vivo, Alopecurus myosuroides", "in_short": "as §1"}, "[11]": {"test_system": "ryegrass, Italian", "experiment": "Test C postemergence", "assay_type": "in vivo, Lolium multiflorum", "in_short": "as §1"}, "[12]": {"test_system": "lambsquarters", "experiment": "Test C postemergence", "assay_type": "in vivo, Chenopodium album", "in_short": "as §1"}, "[13]": {"test_system": "foxtail, giant", "experiment": "Test C postemergence", "assay_type": "in vivo, Setaria faberii", "in_short": "as §1"}, "[14]": {"test_system": "velvetleaf", "experiment": "Test C postemergence", "assay_type": "in vivo, Abutilon theophrasti", "in_short": "as §1"}, "[15]": {"test_system": "nutsedge, yellow", "experiment": "Test C postemergence", "assay_type": "in vivo, Cyperus esculentus", "in_short": "as §1"}, "[16]": {"settings": "Postemergence, 31 g ai/ha, visually evaluated after 13 to 15 days"}, "[17]": {"settings": "postemergence, 62 g ai/ha, scale 0 to 100"}, "[18]": {"settings": "postemergence, 250 g ai/ha, scale 0 to 100 (0 no effect, 100 complete control)"}, "[19]": {"settings": "postemergence, 125 g ai/ha, scale 0 to 100, 0 no effect, 100 complete control"}}}
{"smiles": "CCOc1cc(C(=O)NCC(F)(F)F)nn1Cc1ccnc(C(F)(F)F)c1", "note": "[Compound 104]", "values": [{"measurement": "Plant response rating (scale of 0 to 100 where 0 is no effect and 100 is complete control), Oilseed Rape", "setting": "[1]; [16]", "result": 40}, {"measurement": "Oilseed Rape plant response rating", "setting": "[1]; [17]", "result": 50}, {"measurement": "Plant response rating, Oilseed Rape", "setting": "[1]; [18]", "result": 85}, {"measurement": "Plant response rating, Oilseed Rape", "setting": "[1]; [19]", "result": 60}, {"measurement": "Plant response rating (scale of 0 to 100 where 0 is no effect and 100 is complete control), Crabgrass, Large", "setting": "[2]; [16]", "result": 5}, {"measurement": "Crabgrass, Large plant response rating", "setting": "[2]; [17]", "result": 70}, {"measurement": "Plant response rating, Crabgrass, Large", "setting": "[2]; [18]", "result": 95}, {"measurement": "Plant response rating, Crabgrass, Large", "setting": "[2]; [19]", "result": 75}, {"measurement": "Plant response rating (scale of 0 to 100 where 0 is no effect and 100 is complete control), Galium", "setting": "[3]; [16]", "result": 60}, {"measurement": "Galium plant response rating", "setting": "[3]; [17]", "result": 60}, {"measurement": "Plant response rating, Galium", "setting": "[3]; [18]", "result": 85}, {"measurement": "Plant response rating, Galium", "setting": "[3]; [19]", "result": 85}, {"measurement": "Plant response rating (scale of 0 to 100), Lambsquarters", "setting": "[4]; Preemergence, 250 g ai/ha", "result": 100}, {"measurement": "Lambsquarters plant response rating", "setting": "[4]; preemergence, 31 g ai/ha, visual rating, scale 0 to 100 (0 no effect, 100 complete control), 13 to 15 days", "result": 98}, {"measurement": "Plant response rating, Lambsquarters", "setting": "[4]; preemergence, 62 g ai/ha, 13 to 15 days, scale 0 to 100, 0 = no effect, 100 = complete control", "result": 98}, {"measurement": "Lambsquarters plant response rating", "setting": "[4]; preemergence, 125 g ai/ha, scale 0 to 100, 0 is no effect, 100 is complete control", "result": 100}, {"measurement": "Plant response rating (scale of 0 to 100 where 0 is no effect and 100 is complete control), Waterhemp", "setting": "[5]; [16]", "result": 35}, {"measurement": "Waterhemp plant response rating", "setting": "[5]; [17]", "result": 85}, {"measurement": "Plant response rating, Waterhemp", "setting": "[5]; [18]", "result": 98}, {"measurement": "Plant response rating (scale of 0 to 100 where 0 is no effect and 100 is complete control), Kochia", "setting": "[6]; [16]", "result": 85}, {"measurement": "Kochia plant response rating", "setting": "[6]; [17]", "result": 90}, {"measurement": "Plant response rating, Kochia", "setting": "[6]; [18]", "result": 90}, {"measurement": "Plant response rating, Kochia", "setting": "[6]; [19]", "result": 90}, {"measurement": "Plant response rating (scale of 0 to 100 where 0 is no effect and 100 is complete control), Barnyardgrass", "setting": "[7]; [16]", "result": 5}, {"measurement": "Barnyardgrass plant response rating", "setting": "[7]; [17]", "result": 5}, {"measurement": "Plant response rating, Barnyardgrass", "setting": "[7]; [18]", "result": 90}, {"measurement": "Plant response rating, Barnyardgrass", "setting": "[7]; [19]", "result": 45}, {"measurement": "Plant response rating (scale of 0 to 100 where 0 is no effect and 100 is complete control), Oat, Wild", "setting": "[8]; [16]", "result": 5}, {"measurement": "Oat, Wild plant response rating", "setting": "[8]; [17]", "result": 15}, {"measurement": "Plant response rating, Oat, Wild", "setting": "[8]; [18]", "result": 85}, {"measurement": "Plant response rating, Oat, Wild", "setting": "[8]; [19]", "result": 35}, {"measurement": "Plant response rating (scale of 0 to 100 where 0 is no effect and 100 is complete control), Morningglory", "setting": "[9]; [16]", "result": 0}, {"measurement": "Morningglory plant response rating", "setting": "[9]; [17]", "result": 80}, {"measurement": "Plant response rating, Morningglory", "setting": "[9]; [18]", "result": 98}, {"measurement": "Plant response rating, Morningglory", "setting": "[9]; [19]", "result": 95}, {"measurement": "Plant response rating (scale of 0 to 100 where 0 is no effect and 100 is complete control), Blackgrass", "setting": "[10]; [16]", "result": 10}, {"measurement": "Blackgrass plant response rating", "setting": "[10]; [17]", "result": 10}, {"measurement": "Plant response rating, Blackgrass", "setting": "[10]; [18]", "result": 80}, {"measurement": "Plant response rating, Blackgrass", "setting": "[10]; [19]", "result": 40}, {"measurement": "Plant response rating (scale of 0 to 100 where 0 is no effect and 100 is complete control), Ryegrass, Italian", "setting": "[11]; [16]", "result": 5}, {"measurement": "Ryegrass, Italian plant response rating", "setting": "[11]; [17]", "result": 5}, {"measurement": "Plant response rating, Ryegrass, Italian", "setting": "[11]; [18]", "result": 80}, {"measurement": "Plant response rating, Ryegrass, Italian", "setting": "[11]; [19]", "result": 35}, {"measurement": "Plant response rating (scale of 0 to 100 where 0 is no effect and 100 is complete control), Lambsquarters", "setting": "[12]; [16]", "result": 80}, {"measurement": "Lambsquarters plant response rating", "setting": "[12]; [17]", "result": 95}, {"measurement": "Plant response rating, Lambsquarters", "setting": "[12]; [18]", "result": 95}, {"measurement": "Plant response rating, Lambsquarters", "setting": "[12]; [19]", "result": 95}, {"measurement": "Plant response rating (scale of 0 to 100 where 0 is no effect and 100 is complete control), Foxtail, Giant", "setting": "[13]; [16]", "result": 5}, {"measurement": "Foxtail, Giant plant response rating", "setting": "[13]; [17]", "result": 85}, {"measurement": "Plant response rating, Foxtail, Giant", "setting": "[13]; [18]", "result": 98}, {"measurement": "Plant response rating, Foxtail, Giant", "setting": "[13]; [19]", "result": 90}, {"measurement": "Plant response rating (scale of 0 to 100 where 0 is no effect and 100 is complete control), Velvetleaf", "setting": "[14]; [16]", "result": 25}, {"measurement": "Velvetleaf plant response rating", "setting": "[14]; [17]", "result": 40}, {"measurement": "Plant response rating, Velvetleaf", "setting": "[14]; [18]", "result": 80}, {"measurement": "Plant response rating, Velvetleaf", "setting": "[14]; [19]", "result": 65}, {"measurement": "Plant response rating (scale of 0 to 100 where 0 is no effect and 100 is complete control), Nutsedge, Yellow", "setting": "[15]; [16]", "result": 5}, {"measurement": "Nutsedge, Yellow plant response rating", "setting": "[15]; [17]", "result": 5}, {"measurement": "Plant response rating, Nutsedge, Yellow", "setting": "[15]; [18]", "result": 60}, {"measurement": "Plant response rating, Nutsedge, Yellow", "setting": "[15]; [19]", "result": 10}]}
